# Results as given in patent US10975094B2, “Heterocyclic compounds as RSV inhibitors” (Enanta Pharmaceuticals, Inc., priority 2018, dated 2021).
# Read-outs that look alike come from different tables or passages of the source.
# Tested on: Human RSV-A (“Long” strain)
# Test: RSV in vitro cytoprotection assay in HEp-2 cells (ATPlite read-out)
# Type: cell-based
# Conditions: human respiratory syncytial virus
# Text: RSV is a single stranded negative sense RNA virus that causes respiratory tract infections which can be dangerous to infants, the elderly, and immunosuppressed individuals. Currently there is no vaccine, and therapeutic options are both costly and of limited effectiveness. These approved treatments are Ribavirin, and Palivizumab/Synagis (a monoclonal antibody). RSV has two genotypes, A and B, which differ primarily in the structure of the virus' surface “G” attachment protein. Our current primary screen focuses on RSV-A and uses an in vitro cytoprotection assay where compounds are added in 2-fold dilutions to cells which are then subjected to fully replicative viral particles. Cell viability is measured several days later along with separate measurements of compound cytotoxicity. This report focuses on the results of our most recent screening of compounds.
# HEp-2 cells, (originally derived from tumors grown in irradiated-cortisonised weanling rats that had been injected with epidermoid carcinoma tissue from a person's larynx, but later found to be indistinguishable from HeLa cells by PCR DNA analysis), were used for the culturing of genotype A, “Long” strain RSV. Flasks were inoculated with RSV and viral stocks were collected once cytopathic effect (CPE) was greater than 90%. Viral stocks in 25% sucrose media were snap frozen using liquid nitrogen to increase viral stability. Viral stock titers were quantified by tissue culture infectious dose 50% (TCID50) using 8,000 cells per well and 3-fold viral dilutions across a 96-well plate, cultured for 4 days.
# Following extensive parameter testing, the final assay is run as follows: HEp-2 cells are seeded into the inner 60 wells of a 96-well plate at 8,000 cells per well in a volume of 50 μL using Growth Media (DMEM without phenol red, 1% L-Glut, 1% Penn/Strep, 1% nonessential amino acids, 10% FBS). 2-Fold serial dilutions of control and test compounds are added to the wells in duplicate in a total volume of 25 μL. Viral stock is then added to the wells in a volume of 25 μL, bringing the total volume of each well to 100 μL. Each 96-well plate has a control column of 6 wells with cells and virus but no compound (negative control, max CPE), a column with cells but no compound or virus (positive control, minimum CPE), and a column with no cells or virus or compound (background plate/reagent control). The control wells with cells but no virus are given an additional 25 μL of growth media containing an equal quantity of sucrose as those wells receiving the viral stock in order to keep consistent in media and volume conditions. The outer wells of the plate are filled with 125 μL of growth media to act as a thermal and evaporative moat around the test wells. Following a 4-day incubation period, the plates are read using ATPlite (50 μL added per well), which quantifies the amount of ATP (a measure of cell health) present in each well. Assay plates are read using the Envision luminometer. In parallel, cytotoxicity is examined on an additional 96-well plate treated in an identical manner, but substituting the 25 μL of viral stock for 25 μL of growth media. […] EC50 ranges are as follows: A<0.1 μM; B 0.1-0.5 μM; C>0.5 μM
# [1] = 96 h, HEp-2 cells, genotype A “Long” strain RSV, 4-day incubation, ATPlite, read-out: Human RSV-A (“Long” strain) EC50
EC50 [1],Compound,EC50 (HEp-2)
0.1 to 0.5 µM,Cc1cnc(N2CC3(CCOCC3)C2)c(C(=O)Nc2ccc(C(=O)N3CCc4cc(C(=O)c5ncccc5C)sc4-c4ccccc43)cc2)c1 [Example 40],
< 0.1 µM,Cc1cnc(N2CC3(CCOCC3)C2)c(C(=O)Nc2ccc(C(=O)N3CCc4cc(C(=O)c5nc(C#N)c[nH]5)sc4-c4ccc(F)cc43)cc2)c1 [Example 32],
> 0.5 µM,Cc1cnc(N2CC3(CCOCC3)C2)c(C(=O)Nc2ccc(C(=O)N3CCc4cc(C(=O)c5ccccc5C)sc4-c4ccccc43)cc2)c1 [Example 38],
0.1 to 0.5 µM,Cc1cnc(N2CC3(CCOCC3)C2)c(C(=O)Nc2ccc(C(=O)N3CCc4cc(C(=O)c5nc6ccccc6n5C)sc4-c4ncccc43)cc2)c1 [Example 25],
< 0.1 µM,Cc1cnc(N2CC3(CCOCC3)C2)c(C(=O)Nc2ccc(C(=O)N3CCc4cc(C(=O)c5ncc6ccccn56)sc4-c4ccc(F)cc43)cc2)c1 [Example 29],
0.1 to 0.5 µM,Cc1cnc(N2CC3(CCOCC3)C2)c(C(=O)Nc2ccc(C(=O)N3CCc4cc(C(=O)c5ccccc5F)sc4-c4ccccc43)cc2)c1 [Example 39],
> 0.5 µM,Cc1ccc(C(=O)Nc2ccc(C(=O)N3CCc4c(sc(C(=O)c5nc6ccccc6[nH]5)c4F)-c4ccccc43)cc2)c(N2CC3(CCOCC3)C2)n1 [Example 27],
< 0.1 µM,Cc1cnc(N2CC3(CCOCC3)C2)c(C(=O)Nc2ccc(C(=O)N3CCc4cc(C(=O)c5nc(C(F)(F)F)c[nH]5)sc4-c4ccc(F)cc43)cc2)c1 [Example 33],
0.1 to 0.5 µM,Cc1cnc(N2CC3(CCOCC3)C2)c(C(=O)Nc2ccc(C(=O)N3CCc4cc(C(=O)c5nnc(C)o5)sc4-c4ccc(F)cc43)cc2)c1 [Example 31],
< 0.1 µM,Cc1cnc(N2CC3(CCOCC3)C2)c(C(=O)Nc2ccc(C(=O)N3CCc4cc(C(=O)c5nc6ccccc6o5)sc4-c4ccc(F)cc43)cc2)c1 [Example 30],
< 0.1 µM,Cc1cnc(N2CC3(CCOCC3)C2)c(C(=O)Nc2ccc(C(=O)N3CCc4cc(C(=O)c5nc6c([nH]5)CCC6)sc4-c4ncccc43)cc2)c1 [Example 24],
< 0.1 µM,Cc1cnc(N2CC3(CCOCC3)C2)c(C(=O)Nc2ccc(C(=O)N3CCc4cc(C(=O)c5[nH]nnc5C)sc4-c4ccc(F)cc43)cc2)c1 [Example 36],
0.1 to 0.5 µM,Cc1cnc(N2CC3(CCOCC3)C2)c(C(=O)Nc2ccc(C(=O)N3CCc4cc(C(=O)c5cc(C(F)(F)F)n[nH]5)sc4-c4ccc(F)cc43)cc2)c1 [Example 34],
0.1 to 0.5 µM,Cc1ccc(C(=O)Nc2ccc(C(=O)N3CCc4cc(C(=O)c5[nH]nnc5C)sc4-c4ccc(F)cc43)cc2)c(N2CC3(CCOCC3)C2)n1 [Example 37],
< 0.1 µM,Cc1ccc(C(=O)Nc2ccc(C(=O)N3CCc4c(sc(C(=O)c5nccn5C)c4F)-c4ccccc43)cc2)c(N2CC3(CCOCC3)C2)n1 [Example 28],
< 0.1 µM,Cc1cnc(N2CC3(CCOCC3)C2)c(C(=O)Nc2ccc(C(=O)N3CCc4cc(C(=O)c5cc(C)n[nH]5)sc4-c4ccc(F)cc43)cc2)c1 [Example 35],
< 0.1 µM,Cc1cnc(N2CC3(CCOCC3)C2)c(C(=O)Nc2ccc(C(=O)N3CCc4cc(C(=O)c5nc6c([nH]5)CCCC6)sc4-c4ncccc43)cc2)c1 [Example 23],
< 0.1 µM,Cc1cnc(N2CC3(CCOCC3)C2)c(C(=O)Nc2ccc(C(=O)N3CCc4cc(C(=O)c5nc6c(F)cccc6[nH]5)sc4-c4ncccc43)cc2)c1 [Example 26],

# Second part, the molecule before the results:
Compound,EC50 [1],EC50 (HEp-2)
Cc1cnc(N2CC3(CCOCC3)C2)c(C(=O)Nc2ccc(C(=O)N3CCc4cc(C(=O)c5nc6c(F)cccc6[nH]5)oc4-c4ccccc43)cc2)c1 [Example 16],< 0.1 µM,
"O=C(Nc1ccccc1F)N[C@H]1N=C(c2ccccc2)c2ccccc2NC1=O [RSV-604, reference compound]",,~2.4 µM
Cc1cnc(N2CC3(CCOCC3)C2)c(C(=O)Nc2ccc(C(=O)N3CCc4cc(C(=O)c5nc6c(C)cccc6[nH]5)sc4-c4ncccc43)cc2)c1 [Example 20],> 0.5 µM,
Cc1cnc(N2CC3(CCOCC3)C2)c(C(=O)Nc2ccc(C(=O)N3CCc4cc(C(=O)c5nccn5C)sc4-c4ncccc43)cc2)c1 [Example 19],< 0.1 µM,
Cc1cnc(N2CC3(CCOCC3)C2)c(C(=O)Nc2ccc(C(=O)N3CCc4cc(C(=O)c5nc6ccccc6[nH]5)sc4-c4ccc(F)cc43)cc2)c1 [Example 8],< 0.1 µM,
Cc1cnc(N2CC3(CCOCC3)C2)c(C(=O)Nc2ccc(C(=O)N3CCc4cc(C(=O)c5nc6c([nH]5)CCCC6)oc4-c4ccccc43)cc2)c1 [Example 17],< 0.1 µM,
Cc1cnc(N2CC3(CCOCC3)C2)c(C(=O)Nc2ccc(C(=O)N3CCc4cc(C(=O)c5nc6ncccc6[nH]5)sc4-c4ccc(F)cc43)cc2)c1 [Example 3],< 0.1 µM,
Cc1cnc(N2CC3(CCOCC3)C2)c(C(=O)Nc2ccc(C(=O)N3CCc4cc(C(=O)c5nc(C)c(C)[nH]5)oc4-c4ccccc43)cc2)c1 [Example 13],< 0.1 µM,
Cc1cnc(N2CC3(CCOCC3)C2)c(C(=O)Nc2ccc(C(=O)N3CCc4cc(C(=O)c5nc6ccccc6[nH]5)sc4-c4ccccc43)cc2)c1 [Example 11],< 0.1 µM,
Cc1cnc(N2CC3(CCOCC3)C2)c(C(=O)Nc2ccc(C(=O)N3CCc4cc(C(=O)c5nc6c(F)cccc6[nH]5)sc4-c4ccc(F)cc43)cc2)c1 [Example 7],< 0.1 µM,
Cc1cnc(N2CC3(CCOCC3)C2)c(C(=O)Nc2ccc(C(=O)N3CCc4cc(C(=O)c5nc(C6CC6)c[nH]5)sc4-c4ccc(F)cc43)cc2)c1 [Example 10],0.1 to 0.5 µM,
Cc1cnc(N2CC3(CCOCC3)C2)c(C(=O)Nc2ccc(C(=O)N3CCc4cc(C(=O)c5ncc(C)[nH]5)sc4-c4ccc(F)cc43)cc2)c1 [Example 9],< 0.1 µM,
Cc1cnc(N2CC3(CCOCC3)C2)c(C(=O)Nc2ccc(C(=O)N3CCc4cc(C(=O)c5ncc(C)[nH]5)oc4-c4ccccc43)cc2)c1 [Example 14],< 0.1 µM,
Cc1cnc(N2CC3(CCOCC3)C2)c(C(=O)Nc2ccc(C(=O)N3CCc4cc(C(=O)c5nc6c(C)cccc6[nH]5)oc4-c4ccccc43)cc2)c1 [Example 15],< 0.1 µM,
Cc1cnc(N2CC3(CCOCC3)C2)c(C(=O)Nc2ccc(C(=O)N3CCc4cc(C(=O)c5nc(C)c(C)[nH]5)sc4-c4ccc(F)cc43)cc2)c1 [Example 4],< 0.1 µM,
Cc1cnc(N2CC3(CCOCC3)C2)c(C(=O)Nc2ccc(C(=O)N3CCc4cc(C(=O)c5nc6ccccc6[nH]5)sc4-c4ncccc43)cc2)c1 [Example 21],< 0.1 µM,
Cc1cnc(N2CC3(CCOCC3)C2)c(C(=O)Nc2ccc(C(=O)N3CCc4cc(C(=O)c5nc6c(C)cccc6[nH]5)sc4-c4ccc(F)cc43)cc2)c1 [Example 6],< 0.1 µM,
Cc1cnc(N2CC3(CCOCC3)C2)c(C(=O)Nc2ccc(C(=O)N3CCc4cc(C(=O)c5nc6ccccc6n5C)sc4-c4ccc(F)cc43)cc2)c1 [Example 2],0.1 to 0.5 µM,
Cc1cnc(N2CC3(CCOCC3)C2)c(C(=O)Nc2ccc(C(=O)N3CCc4cc(C(=O)c5nc6cc(F)ccc6[nH]5)sc4-c4ccc(F)cc43)cc2)c1 [Example 5],0.1 to 0.5 µM,
Cc1cnc(N2CC3(CCOCC3)C2)c(C(=O)Nc2ccc(C(=O)N3CCc4cc(C(=O)c5nc6ccccc6n5C)oc4-c4ccccc43)cc2)c1 [Example 18],< 0.1 µM,
Cc1cnc(N2CC3(CCOCC3)C2)c(C(=O)Nc2ccc(C(=O)N3CCc4cc(C(=O)c5nc6ccccc6[nH]5)oc4-c4ccccc43)cc2)c1 [Example 12],< 0.1 µM,
Cc1cnc(N2CC3(CCOCC3)C2)c(C(=O)Nc2ccc(C(=O)N3CCc4cc(C(=O)c5nccn5C)sc4-c4ccc(F)cc43)cc2)c1 [Example 1],< 0.1 µM,
